Data set [1] deals with Enterococcus faecium Vancomycin-sensitive (first listed). The data set can be described thus: Anti-bacterial activity, broth culture MIC. It is filed as cell-based. The conditions noted are these: Enterococcus faecium, read-out: Approximate Minimum Inhibitory Concentration, MIC. As to the method: (§1) Several uncharged or negatively charged triterpenes, and several positively charged triterpenes of the invention were tested for anti-bacterial activity against antibiotic-susceptible and antibiotic resistant strains of four types of bacteria of concern in clinics and hospitals. The triterpenes weres tested in broth culture in triplicate for ability to inhibit bacterial growth. The compounds tested are those listed below.
(§2) The lowest concentration which inhibits bacterial growth is referred to as the minimum inhibitory concentration (MIC), the standard measurement of anti-microbial activity.

For data set [2], the system named is Enterococcus faecium Vancomycin-sensitive (second listed). Put plainly: Anti-bacterial activity, broth culture MIC. The following applies: Enterococcus faecium, read-out: Approximate Minimum Inhibitory Concentration, MIC. Type of data set: cell-based. The procedure:
as §1, §2

Data set [3] relates to Staphylococcus aureus Methicillin-sensitive. Put plainly: Anti-bacterial activity, broth culture MIC. It is filed as cell-based. The conditions noted are these: Staphylococcus aureus, read-out: Approximate Minimum Inhibitory Concentration, MIC. As to the method:
as §1, §2

Data set [4] relates to Eschericia coli Ampicillin-resistant. Put plainly: Anti-bacterial activity, broth culture MIC. The conditions noted are these: read-out: Approximate Minimum Inhibitory Concentration, MIC. Type of data set: cell-based. As to the method: as §1, §2
In data set [5] the test system is Staphylococcus aureus Methicillin-resistant. Put plainly: Anti-bacterial activity, broth culture MIC. It is filed as cell-based. The conditions noted are these: Staphylococcus aureus, read-out: Approximate Minimum Inhibitory Concentration, MIC. As to the method: as §1, §2
Data set [6] has as its system brown patch, caused by Rhozoctonia sofani. The data set can be described thus: Antifungal treatment on turf grass plots (Example 84), brown patch. The following applies: Table 3 experiment, 17.8 g/1000 sq. ft. (Daconil Ultrex 3.2 oz./1000 sq. ft.). Type of data set: in vivo. The procedure:
(§3) Plots of creeping bentgrass, cv. “Pennlinks,” were treated with water based sprays of the test compounds. Sprays were delivered by CO2-charged sprayer to deliver the equivalent of 2 gallons of spray per 1000 sq. ft of plot area. Plots were 15 sq. ft. each, and treatments were mixed to apply material to 75 sq. ft (5 replicates), although only 4 replicates were treated. The quaternary salts of triterpenes were applied at 17.8 g/1000 sq. ft. for 14 days. Daconil Ultrex® was applied at 3.2 oz./1000 sq. ft. for 14 days. The experiment used a randomized complete block design, with 4 replicates per treatment. Disease pressure was high. Pennlinks […] is moderately to highly susceptible to both dollar spot and brown patch. For brown patch, caused by Rhozoctonia sofani. a visual estimate of the percent of the plot area affected was recorded. Turf quality was estimated on a 1 to 9 scale, with 1 being worst and 9 being perfect. A rating of 6 is considered acceptable.

Data set [7] in a line: Antifungal treatment on turf grass plots (Example 84), turf quality. Type of data set: in vivo, creeping bentgrass, cv. Pennlinks. The following applies: Table 3 experiment, 1 to 9 scale, 9 perfect, 17.8 g/1000 sq. ft. (Daconil Ultrex 3.2 oz./1000 sq. ft.). The procedure:
as §3

The subject of data set [8] is dollar spot. The data set can be described thus: Antifungal treatment on turf grass plots (Example 84), dollar spot count. The conditions noted are these: Table 3 experiment, 17.8 g/1000 sq. ft. (Daconil Ultrex 3.2 oz./1000 sq. ft.). Type of data set: in vivo. The procedure: as §3
For data set [9], the system named is Escherichia coli Ampicillin sensitive. The data set can be described thus: Anti-bacterial activity, broth culture MIC. The following applies: read-out: Approximate Minimum Inhibitory Concentration, MIC. Type of data set: cell-based. As to the method: as §1, §2
Data set [10] deals with dollar spot. Put plainly: Bentgrass dollar spot trial at Rutgers University, lesion count. Type of data set: in vivo. The conditions noted are these: text summary of Table 7. As to the method: Similar experiments were performed at Rutgers University to test for treatment of bentgrass infected with dollar spot. Test compounds were mixed in aqueous solution with the adjuvant Latron B-1956® (Rohm and Haas) and applied to the grass at a rate of 4.18 fluid ounces per 1000 square feet and an interval of every 7 days. The number of lesions per plot were then counted and averaged over the replicate plots. Treatment with fertilizers or other fungicides were also performed.

For data set [11] the following is noted: background statement; cited from earlier work.
In data set [12] the test system is Pseudomonas aeruginosa Multi-drug resistant. Put plainly: Anti-bacterial activity, broth culture MIC. It is filed as cell-based. The conditions noted are these: read-out: Approximate Minimum Inhibitory Concentration, MIC. As to the method: as §1, §2
The test system of data set [13] is Pseudomonas aeruginosa Antibiotic sensitive. The data set can be described thus: Anti-bacterial activity, broth culture MIC. It is filed as cell-based. The conditions noted are these: read-out: Approximate Minimum Inhibitory Concentration, MIC. As to the method: as §1, §2

These results are taken from US7199114B2, “Triterpene quaternary salts as biologically active surfactants” (The Regents of the University of Minnesota, priority 2002, dated 2007).

As to `Br.C=C(C[n+]1ccc(N(C)C)cc1)[C@@H]1CC[C@]2(COC(C)=O)CC[C@]3(C)C(CCC4[C@@]5(C)CC[C@H](OC(C)=O)C(C)(C)C5CC[C@]43C)C12` (some centres unmarked) [Compound 12, 1-(3,28-(diacetoxy)lup-20(29)-ene-30-yl)4-(dimethylamino)pyridinium bromide], the MIC in data set [1] was 2 µg/mL; in data set [2], 2 µg/mL; in data set [3], 2 µg/mL; in [4] it was 50 µg/mL; in data set [5], 5 µg/mL.

Take `C=C(C)[C@@H]1CCC2(COC(=O)C[n+]3cccc(CNC(N)=O)c3)CC[C@]3(C)C(CCC4[C@@]5(C)CC[C@H](OC(=O)C[n+]6cccc(CNC(N)=O)c6)C(C)(C)C5CC[C@]43C)C12.Cl.Cl` (some centres unmarked): the melting point – broadly, the temperature of the solid-liquid transition – was 245 to 247 °C (dec.).

Consider `C=C(C[N+]12CCN(CC1)CC2)[C@@H]1CC[C@]2(COC(C)=O)CC[C@]3(C)C(CCC4[C@@]5(C)CC[C@H](OC(C)=O)C(C)(C)C5CC[C@]43C)C12.[Br-]` (some centres unmarked) [Compound 18, 1-[3,28-(diacetoxy)lup-20(29)-ene-30-yl]-1,4-diazabicyclo[2.2.2]octane bromide], for which the MIC in [1], in data set [2], in data set [3] and in data set [5] was 5 µg/mL each time. Besides, the “Brown Patch % of plot infected” value is given as 37.5% in data set [6] (Jul. 2, 2001); “significantly suppress brown patch” in data set [6] (Jul. 9, 2001); 12.0% in data set [6] (Jul. 9, 2001, listed as Comp. 18); 6.3% in data set [6] (Jul. 16, 2001); 14.8% in data set [6] (Jun. 25, 2001). For the same compound, the “Turf quality” value in [7] (Jul. 2, 2001) was 4.63; in data set [7] (Jul. 9, 2001), 5.50; in data set [7] (Jun. 25, 2001), 4.63. For the same compound, the “Dollar Spot # of spots per plot” value in the data set with dollar spot [8] (Jul. 2, 2001) was determined as 20.8 spots per plot; in the data set with dollar spot [8] (Jul. 9, 2001) it was 14.3 spots per plot; in the data set on dollar spot [8] (Jul. 16, 2001), 1.8 spots per plot; in the data set with dollar spot [8] (Jun. 25, 2001), 16.8 spots per plot.

For `Br.Br.C=C(C)[C@@H]1CC[C@]2(COC(=O)CCC[N+]34CCN(CC3)CC4)CC[C@]3(C)C(CCC4[C@@]5(C)CC[C@H](OC(=O)CCC[N+]67CCN(CC6)CC7)C(C)(C)C5CC[C@]43C)C12` (some centres unmarked) [Compound 25, Lup-20(29)-ene-3,28-bis[(N-(1,4-diazabicyclo[2.2.21]octyl)4-butyrate)]dibromide], the MIC in [9] turned out to be 50 µg/mL; in data set [1], 5 µg/mL; in data set [2], 10 µg/mL; in data set [3] it was 2 µg/mL; in data set [4] it was 100 µg/mL; in data set [5], 2 µg/mL.

For `CCCCCCCCCC[N+](C)(CCCCCCCCCC)CC(=O)O[C@H]1CC[C@@]2(C)C(CC[C@]3(C)C2CC[C@@H]2C4[C@H]5OC[C@@]4(CCC5(C)C)CC[C@]23C)C1(C)C.[Cl-]` (stereo partly drawn) [Compound 80, 3β-[(N-methyl-N,N-didecyl)aminoacetyloxy]-19β,28-epoxy-18α-oleanan chloride], the “effectiveness against dollar spot” value with dollar spot [10] is given as “particularly effective”.

For the compound `C=C(C)[C@@H]1CC[C@]2(CO)CC[C@]3(C)[C@H](CC[C@@H]4[C@@]5(C)CC[C@H](O)C(C)(C)[C@@H]5CC[C@]43C)[C@@H]12` [betulin], the solubility in water entry in [11] is listed as “about 0.15 mg/l”.

For the compound `Br.C=C(C)[C@@H]1CC[C@]2(COC(=O)CCC[n+]3ccc(N(C)C)cc3)CC[C@]3(C)C(CCC4[C@@]5(C)CC[C@H](OC(=O)CCC[n+]6ccc(N(C)C)cc6)C(C)(C)C5CC[C@]43C)C12` (some centres unmarked) [Compound 40, Lup-20(29)-ene3,28-bis [N-(4-dimethylaminopyridinium)4-butyrate] dibromide], the MIC stood at 200 µg/mL in data set [12]; 200 µg/mL in data set [13]; 20 µg/mL in [9]; 2 µg/mL in [1]; 5 µg/mL in data set [2]; 5 µg/mL in data set [3]. Also, the MIC in [4] was 50 µg/mL; in data set [5] it was 5 µg/mL.
